Measured values reported in publication PMC3743924 (The Biochemical journal, 2013).

Tests used:
[1] = biological target: T1, APH(3')-Ia (Escherichia coli, UniProt P00551); details: Ca2+ complex; nucleotide site
[2] = biological target: T1, APH(3')-Ia; assay: activity assay with kanamycin; format: biochemical; details: co-substrate kanamycin; constants unpublished
[3] = biological target: T1, APH(3')-Ia; assay: X-ray crystal structure, […]-2.[…] A; format: binding; details: ternary complex with kanamycin; ATP site; pH 4.5

T1 sequence (P00551 whole entry): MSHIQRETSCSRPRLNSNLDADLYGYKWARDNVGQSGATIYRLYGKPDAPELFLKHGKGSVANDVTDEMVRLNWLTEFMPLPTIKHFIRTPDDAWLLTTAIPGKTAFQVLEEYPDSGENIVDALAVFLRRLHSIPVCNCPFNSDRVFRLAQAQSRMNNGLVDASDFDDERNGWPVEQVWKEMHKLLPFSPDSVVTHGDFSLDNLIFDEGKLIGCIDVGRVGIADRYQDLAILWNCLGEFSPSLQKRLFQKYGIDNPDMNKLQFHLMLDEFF

Nc1ncnc2c1ncn2[C@@H]1O[C@H](COP(=O)(O)OP(=O)(O)OP(=O)(O)O)[C@@H](O)[C@H]1O [ATP]
X-ray crystal structure, 2.3-2.4 A [1]: unambiguous additional density corresponding to the ATP molecule

Nc1nc2c(ncn2[C@@H]2O[C@H](COP(=O)(O)OP(=O)(O)OP(=O)(O)O)[C@@H](O)[C@H]2O)c(=O)[nH]1 [GTP]
activity assay with kanamycin [2]: indicating GTP is a superior substrate

COc1cc2ncnc(Nc3cccc(Cl)c3)c2cc1OC [Tyrphostin AG 1478, N-(3-chlorophenyl)-6,7-dimethoxyquinazolin-4-amine]
X-ray crystal structure, 2.69-2.71 A [3]: the inhibitor molecule was held in the NTP binding site through hydrophobic interactions
